According to patent publication EP0461039B1, “Benzimidazole derivatives, process and intermediates for their preparation, their use as medicaments and pharmaceutical compositions containing them” (HOECHST MARION ROUSSEL, priority 1990, dated 1991):

How the values were obtained:
[1] = test system: angiotensine II sur la veine porte isolée; assay: Angiotensin II antagonist activity on the isolated portal vein; assay type: cell-based, rats mâles Wistar; details: rat portal vein ring, angiotensin II 3.10^-8M, compound added 15 minutes before stimulation, verapamil 1.10^-6M in the bath; read-out: CI50 (the source's name)
Experimental: La veine porte est prélevée, sur des rats mâles Wistar (350 g environ) (IFFA Crédo Franc) après dislocation cervicale, et mise rapidement dans une solution physiologique (voir ci-dessous) à température ambiante. Un anneau de 1 mm environ est monté dans un bain à organe isolé contenant 20 ml de la solution physiologique suivante (composition en mM : NaCl 118,3 - KCl 4,7 - MgSO4 1,2 - KH2PO4 1,2 - NaHCO3 25 - glucose 11,1 - CaCl2 2,5) le milieu est maintenu à 37°C et oxygéné par un mélange O2 95 %, CO2 5 %. La tension initiale imposée est de 1 g, les anneaux sont laissés au repos pendant 60 à 90 minutes. Afin d'éviter les contractions spontanées, du vérapamil est ajouté au bain d'incubation (1.10^-6M).
A la fin de la période de repos l'angiotensine II (hypertensine Ciba) 3.10^-8M est ajoutée dans le bain d'incubation et laissée au contact de la préparation pendant 1 minute. Cette opération est répétée chaque 30 minutes, le tissu étant lavé 3 ou 4 fois entre deux stimulations à l'angiotensine. Le composé à étudier est introduit dans le bain 15 minutes avant une nouvelle stimulation par l'angiotensine. Des concentrations croissantes de la molécule étant appliquées, une CI50 (concentration qui produit une inhibition de 50 % de la réponse à l'angiotensine) peut être calculée, celle-ci est exprimée en nanomoles.

[2] = target: T1, récepteur de l'angiotensine II (Rattus norvegicus, UniProt P25095); assay: Angiotensin II receptor binding test (displacement of 125I angiotensin II, rat liver membranes); details: fresh rat liver membrane preparation, incubation at 25°C for 150 minutes, read-out: CI50 (the source's name)
T1 construct: une préparation membranaire fraîche obtenue à partir de foie de rat; from tissue; host or cells: rat liver membranes
T1 sequence (P25095 1-359): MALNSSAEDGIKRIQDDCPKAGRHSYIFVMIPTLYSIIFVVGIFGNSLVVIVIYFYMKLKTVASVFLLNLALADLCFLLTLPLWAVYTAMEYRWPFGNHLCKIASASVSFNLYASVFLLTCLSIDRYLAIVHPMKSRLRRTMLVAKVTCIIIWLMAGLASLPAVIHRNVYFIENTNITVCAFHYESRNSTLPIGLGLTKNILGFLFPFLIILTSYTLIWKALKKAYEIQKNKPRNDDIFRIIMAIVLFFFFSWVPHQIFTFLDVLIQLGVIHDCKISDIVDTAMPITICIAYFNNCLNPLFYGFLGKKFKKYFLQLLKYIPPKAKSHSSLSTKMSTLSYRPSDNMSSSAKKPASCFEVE
Experimental: On utilise une préparation membranaire fraîche obtenue à partir de foie de rat. Le tissu est broyé au polytron dans un tampon Tris 50 mM pH 7,4 le broyage est suivi de 3 centrifugations à 30 000 g 15' avec reprises intermédiaires des culots dans le tampon Tris pH 7,4.
Les derniers culots sont remis en suspension dans un tampon d'incubation (Tris 20 mM, NaCl 135 mM, KCl 10 mM, glucose 5 mM, MgCl2 10 mM, fluorure de phényl méthyl sulfonyle 0,3 mM, bacitracine 0,1 mM, bis(triméthylsilyl) acétamide 0,2 %).
On répartit des fractions aliquotes de 2 ml dans des tubes à hémolyse et ajoute de la ^125I angiotensine II (25 000 DPM/tube) et le produit à étudier. (Le produit est d'abord testé à 3 x 10^-5M en triple). Lorsque le produit testé déplace de plus de 50 % la radioactivité liée spécifiquement au récepteur, il est testé à nouveau selon une gamme de 7 concentrations afin de déterminer la concentration qui inhibe de 50 % la radioactivité liée spécifiquement au récepteur. On détermine ainsi la concentration inhibitrice 50 %).
La liaison non spécifique est déterminée par addition d'un produit de référence soit le produit de l'exemple 94 du brevet européen 0253310 à 10^-5M (en triple). On incube à 25°C pendant 150 minutes, remet au bain-marie à 0°C, 5 minutes, filtre sous vide, rince au tampon Tris pH 7,4 et compte la radioactivité en présence du scintillant Triton. […]

IC50 [1]: 9.5 nM | IC50 [2]: 52 nM
SMILES: CCCCc1nc2cccc(C(=O)O)c2n1Cc1ccc(-c2ccccc2C(=O)O)cc1 [Exemple 2, Acide 2-butyl 1-[(2'-carboxybiphényl-4-yl)méthyl] 1H-benzimidazole-7-carboxylique]
